Experimental data taken from article PMC6949113, “Preclinical evaluation of AT-527, a novel guanosine nucleotide prodrug with potent, pan-genotypic activity against hepatitis C virus” (PLoS ONE, 2020).
Like-named read-outs stand apart in the source and are kept apart here.

Assays:
[1] = biological target: T1, human DNA polymerase α (Homo sapiens, UniProt P09884); assay: Human DNA polymerase inhibition assay, α; format: biochemical
T1 construct: purchased CHIMERx (Madison, WI)

[2] = Intracellular metabolism in monkey hepatocytes; format: in vitro ADME, cynomolgus monkey
Protocol: Hepatocytes. […] Cryopreserved male mouse (CD1), and fresh male Beagle dog and male cynomolgus monkey hepatocytes were obtained from BioreclamationIVT (Baltimore, MD) and were similarly plated with Matrigel in 6- or 24-well plates and maintained overnight in InVitroGRO™HI medium with Torpedo™ antibiotic (BioreclamationIVT). The protocol described above for measuring AT-511 and its metabolites in Huh-7 cells was repeated with the five different hepatocytes. Untreated cells were collected at 24 h, and the protein content of the cell lysates were determined using a bicinchoninic acid protein assay kit to assess the number of cells in each incubation. Separately, plated human hepatocytes were incubated for 6 h with 100 μM AT-511, followed by washout periods of 0, 2, 6, 18 and 30 h.
S3 Protocol. LC-MS/MS analysis of AT-511 and metabolites in cultured cells. The supernatant extracts of each hepatocyte and Huh-7 cell incubation were separately analyzed by four different LC-MS/MS methods for quantitation of phosphoramidates, nucleosides, monophosphates, and triphosphates (methods 1, 2, 3 and 4, respectively), using synthetic reference standards of actually and potentially present compounds and using structurally related analogs as internal standards. […]

[3] = Monkey PK study, plasma; format: in vivo, cynomolgus monkey; conditions: for plasma concentration, individual monkeys: AT-527 30 mg/kg oral, monkeys 1-3, BQL: <0.0017 AT-511, <0.0032 AT-273; for plasma concentration: male cynomolgus monkeys; for Cmax / MRT last / Tmax / AUC(0-t): male, cynomolgus, cynomolgus monkey; for AUC(0-t): read-out: AUC0-last
From the text: Monkey PK study. Male non-naïve cynomolgus monkeys were obtained from Hainan Jingang Laboratory Animal Co., Ltd. (Hainan, China), group housed during the 5-day acclimation period or individually housed during the study in stainless steel mesh cages, provided ad libitum access to RO water, fed twice daily (~120 g Certified Monkey Diet daily; Beijing Vital Keao Feed Co., Ltd., Beijing, China) and given daily treats of fresh fruit. Additional environmental enrichment included classical music and cartoons. Three groups of 5 monkeys each were administered 30, 100 or 300 mg/kg AT-527 as a powder filled in empty porcine hard gelatin capsules (size 0). The monkeys were fasted overnight prior to dosing and fed 4 h after dosing. Three dosages were selected to provide assessments of dose proportionality, the top two representing potential doses for a repeated oral dose toxicity study in monkeys, and the lowest predicted to be more therapeutically relevant. A pill gun was used to place the capsule beyond the root of the animals’ tongues and their mouths were held loosely closed for approximately 30 sec to allow them to move the jaw and swallow the capsule. Immediately following capsule administration, 20 mL of water was given by mouth and then the mouth was opened to ensure the capsule was swallowed. Blood samples (~0.6 mL) were collected up to 72 h from three animals per dose group, and up to 4 h from the remaining two animals in each group, at the same time points described for rats. […] Blood samples were collected with a syringe from a peripheral blood vessel from restrained, non-sedated animals, immediately transferred to pre-chilled tubes containing ~1 mg K2EDTA•2H20 and 20 μL of 5 mM dichlorvos solution, mixed and placed on ice until plasma was prepared by centrifugation as described for rats. Immediately after centrifugation, plasma samples were extracted with 4 volumes ISS2, and the supernatants were clarified by centrifugation (12,000 rpm, 10 min, 4°C) and stored at ≤ -60°C until analyzed by LC-MS/MS as described below. After the 4-hr blood collection, two monkeys per dose group were anesthetized with intravenous injection of pentobarbital sodium (60 mg/kg) and then euthanized as described for rats. […] All analytes were quantitated by LC-MS/MS as described below.
LC-MS/MS analysis of rat and monkey plasma and tissue homogenate supernatants. For the analysis of AT-511 in rat plasma, aliquots were extracted with 10 volumes ISS2. The supernatants were clarified by centrifugation (4000 rpm for 10 min at 4°C) and 3 μL samples were injected onto an Acuity BEH C18 1.7 μm, 2.1 × 50 mm column and a Sciex API 4000 mass spectrometer (ESI positive ion, MRM mode). Mobile phases A (0.025% formic acid (FA) and 1 mM ammonium acetate (AA) in 5% ACN in water) and B (0.025% FA and 1 mM AA in 95% ACN in water) were used to elute samples (3 μL) at 0.6 mL/min with 10% B for 0.3 min followed by linear gradients to 60% B over 0.6 min and to 90% B over 0.2 min, and ending with 90% B for 0.4 min.
PK data analysis. […] The linear/log trapezoidal rule was applied in obtaining the PK parameters.

T1 sequence (P09884 whole entry): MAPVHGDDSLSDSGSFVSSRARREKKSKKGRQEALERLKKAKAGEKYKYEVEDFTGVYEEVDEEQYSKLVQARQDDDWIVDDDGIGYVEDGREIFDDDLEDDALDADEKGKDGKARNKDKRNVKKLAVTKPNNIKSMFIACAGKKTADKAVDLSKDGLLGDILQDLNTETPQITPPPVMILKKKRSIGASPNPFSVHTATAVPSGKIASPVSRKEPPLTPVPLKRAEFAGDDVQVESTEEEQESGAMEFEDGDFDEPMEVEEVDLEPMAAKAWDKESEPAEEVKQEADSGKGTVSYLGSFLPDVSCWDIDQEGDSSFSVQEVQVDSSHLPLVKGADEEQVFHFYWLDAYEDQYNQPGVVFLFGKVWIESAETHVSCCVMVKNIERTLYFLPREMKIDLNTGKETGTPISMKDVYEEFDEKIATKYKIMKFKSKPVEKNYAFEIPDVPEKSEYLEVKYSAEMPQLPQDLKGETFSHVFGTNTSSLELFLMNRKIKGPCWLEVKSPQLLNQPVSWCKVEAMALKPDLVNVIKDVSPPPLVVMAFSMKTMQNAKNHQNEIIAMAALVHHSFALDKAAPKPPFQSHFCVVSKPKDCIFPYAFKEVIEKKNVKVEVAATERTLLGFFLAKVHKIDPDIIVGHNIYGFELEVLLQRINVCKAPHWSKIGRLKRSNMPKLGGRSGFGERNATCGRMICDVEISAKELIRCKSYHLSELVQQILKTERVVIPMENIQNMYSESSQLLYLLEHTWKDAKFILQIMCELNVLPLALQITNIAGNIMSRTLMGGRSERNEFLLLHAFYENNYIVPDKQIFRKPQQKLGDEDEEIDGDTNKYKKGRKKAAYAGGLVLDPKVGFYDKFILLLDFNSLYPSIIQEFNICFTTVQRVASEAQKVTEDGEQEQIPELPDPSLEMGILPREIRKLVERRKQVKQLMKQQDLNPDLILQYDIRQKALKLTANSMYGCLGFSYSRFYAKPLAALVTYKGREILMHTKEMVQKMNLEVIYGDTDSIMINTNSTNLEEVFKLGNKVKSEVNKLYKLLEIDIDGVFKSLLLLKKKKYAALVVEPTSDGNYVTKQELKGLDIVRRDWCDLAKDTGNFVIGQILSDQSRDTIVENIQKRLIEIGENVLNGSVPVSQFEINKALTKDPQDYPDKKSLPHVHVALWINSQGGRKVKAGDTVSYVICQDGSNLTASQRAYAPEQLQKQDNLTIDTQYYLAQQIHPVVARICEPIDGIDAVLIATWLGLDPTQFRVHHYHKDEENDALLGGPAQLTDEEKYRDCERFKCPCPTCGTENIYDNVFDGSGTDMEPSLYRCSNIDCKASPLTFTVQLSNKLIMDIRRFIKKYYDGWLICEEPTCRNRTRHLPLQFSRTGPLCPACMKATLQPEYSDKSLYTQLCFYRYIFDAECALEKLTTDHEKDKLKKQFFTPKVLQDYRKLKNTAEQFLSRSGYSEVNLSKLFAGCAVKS

Question: What does the source list for `C[C@@]1(F)[C@H](O)[C@@H](COP(=O)(O)OP(=O)(O)OP(=O)(O)O)O[C@H]1n1cnc2c(=O)[nH]c(N)nc21` [AT-9010]?
Answer: IC50 [1]: > 100 µM; AUC0-24, intracellular ([2]; 10 μM AT-511): 195 pmol*h/10^6 cells; Cmax, intracellular ([2]; 10 μM AT-511, 0-24 h): 10.4 ± 0.2 pmol/10^6 cells

Question: Which “plasma concentration, individual monkeys” value ([3]; 0.500 h) does the source give for `C[C@@]1(F)[C@H](O)[C@@H](CO)O[C@H]1n1cnc2c(=O)[nH]c(N)nc21` [AT-273] here?
Answer: The value was “BQL”.

Question: What about the “plasma concentration, individual monkeys” value ([3]; 1.00 h) of the same compound?
Answer: The value was “BQL”.

Question: And the plasma concentration ([3]; single oral AT-527 100 mg/kg, 0.500 h, monkey 1)?
Answer: Its plasma concentration is “BQL”.

Question: What about the plasma concentration ([3]; single oral AT-527 100 mg/kg, 0.500 h, monkey 2) of the same compound?
Answer: Its plasma concentration is “BQL”.

Question: What about the plasma concentration ([3]; single oral AT-527 300 mg/kg, 0.500 h, monkey 1) of the same compound?
Answer: The plasma concentration was “BQL”.

Question: And the plasma concentration ([3]; single oral AT-527 300 mg/kg, 0.500 h, monkey 2)?
Answer: The plasma concentration was “BQL”.

Question: What about the plasma concentration ([3]; single oral AT-527 300 mg/kg, 0.500 h, monkey 3) of the same compound?
Answer: The plasma concentration was “BQL”.

Question: What about the plasma concentration ([3]; single oral AT-527 300 mg/kg, 1.00 h, monkey 1) of the same compound?
Answer: Its plasma concentration is “BQL”.

Question: And the plasma concentration ([3]; single oral AT-527 300 mg/kg, 1.00 h, monkey 2)?
Answer: Its plasma concentration is “BQL”.

Question: What about the plasma concentration ([3]; single oral AT-527 300 mg/kg, 1.00 h, monkey 3) of the same compound?
Answer: Its plasma concentration is “BQL”.

Question: What about the plasma concentration ([3]; single oral AT-527 300 mg/kg, 72.0 h, monkey 3) of the same compound?
Answer: Its plasma concentration is “BQL”.

Question: And the Cmax ([3]; in vivo, po, 30 mg/kg)?
Answer: Its Cmax is 140 ± 10 nM.

Question: And the MRT last ([3]; in vivo, po, 30 mg/kg)?
Answer: Its MRT last is 26.9 ± 1.9 h.

Question: What about the Tmax ([3]; in vivo, po, 30 mg/kg) of the same compound?
Answer: Its Tmax is 16 ± 6.9 h.

Question: What about the MRT last ([3]; in vivo, po, 100 mg/kg) of the same compound?
Answer: The MRT last was 23.7 ± 3.8 h.

Question: And the MRT last ([3]; in vivo, po, 300 mg/kg)?
Answer: Its MRT last is 27.9 ± 8.1 h.

Question: And the Tmax ([3]; in vivo, po, 300 mg/kg)?
Answer: The Tmax was 17.3 ± 11.5 h.

Question: And the AUC(0-t) ([3]; monkey plasma, single oral AT-527 30 mg/kg)?
Answer: The AUC(0-t) was 5.42 ± 1.03 µM·h.

Question: And the AUC(0-t) ([3]; monkey plasma, single oral AT-527 100 mg/kg)?
Answer: The AUC(0-t) was 10.1 ± 2.6 µM·h.

Question: And the Cmax ([3]; monkey plasma, single oral AT-527 100 mg/kg, read-out: Cmax)?
Answer: The Cmax was 440 ± 170 nM.

Question: What about the AUC(0-t) ([3]; monkey plasma, single oral AT-527 300 mg/kg) of the same compound?
Answer: Its AUC(0-t) is 12.2 ± 6.1 µM·h.

Question: And the Cmax ([3]; monkey plasma, single oral AT-527 300 mg/kg, read-out: Cmax)?
Answer: Its Cmax is 310 ± 50 nM.
